Measured values published in US20080009511A1, “Cancer treatment with compounds inhibiting PKC alpha” (priority 2004, published 2008).

Legend:
KB oral cancer cells = assay: Cell viability assay (trypan blue dye exclusion), viable cells counted at day 6; type: cell-based, human; settings: for Treated (cell number × 10^5): about 4×10^4 cells seeded, untreated 3.8 ± 0.4
Experimental: (§1) The following cancer cells were maintained in Dulbecco's modified Eagle medium (DMEM) supplemented with 10 percent bovine calf serum. Cells were seeded for 24 hours. Then they were treated with PKC inhibitors or left untreated. The cells were then collected periodically and evaluated using trypan blue dye exclusion to assess viability using the method described by C Y Chen, et al., in J. Biol. Chem. 273:16700-16709. Cultures containing about 4×10^4 cells were treated with 5 micromoles of Gö7874 (except that PC3 prostate cancer cells were treated with 10 micromoles) and the viable cells were counted at day 6. […] Cultures containing about 4×10^4 cells were treated with or without 10 micromoles of Gö6850 and the viable cells were counted at day 6. […] Cultures containing about 4×10^4 cells were treated with or without 10 micromoles of NGIC-I and the viable cells were counted at day 6. […] Cultures containing about 4×10^4 cells were treated with or without 10 micromoles of Ro31-7549 and the viable cells were counted at day 6. […] Cultures containing about 4×10^4 cells were treated with or without 10 micromoles of Ro31-8220 and the viable cells were counted at day 6. […] Cultures containing about 4×10^4 cells were treated with or without 10 micromoles of Ro31-8425 and the viable cells were counted at day 6. […] Cultures containing about 4×10^4 cells were treated with or without 10 micromoles of Ro31-0432 and the viable cells were counted at day 6.

U-937 lymphoma cells = assay: as above; type: cell-based, human; settings: 5 micromoles
Experimental: Cells were seeded for 24 hours. Then they were treated with PKC inhibitors or left untreated. The cells were then collected periodically and evaluated using trypan blue dye exclusion to assess viability using the method described by C Y Chen, et al., in J. Biol. Chem. 273:16700-16709. Cultures containing about 4×10^4 cells were treated with 5 micromoles of Gö7874 (except that PC3 prostate cancer cells were treated with 10 micromoles) and the viable cells were counted at day 6.

[1] = system: A431 human epidermoid carcinoma cells; assay: as above; type: cell-based; settings: for Treated (cell number × 10^5): about 4×10^4 cells seeded, untreated 5.4 ± 0.4
Experimental: as §1

[2] = system: AGS human gastric cancer cells; assay: as above; type: cell-based; settings: for Treated (cell number × 10^5): about 4×10^4 cells seeded, untreated 2.4 ± 0.3
Experimental: as §1

U251 human glioma cells = assay: as above; type: cell-based; settings: for Treated (cell number × 10^5): about 4×10^4 cells seeded, untreated 9.6 ± 0.5
Experimental: as §1

[3] = system: HepG2 human liver cancer cells; assay: as above; type: cell-based; settings: for Treated (cell number × 10^5): about 4×10^4 cells seeded, untreated 4.2 ± 0.4
Experimental: as §1

[4] = system: PANC-1 human pancreatic carcinoma cells; assay: as above; type: cell-based; settings: for Treated (cell number × 10^5): about 4×10^4 cells seeded, untreated 2.1 ± 0.3
Experimental: as §1

[5] = system: H460 human lung cancer cells; assay: as above; type: cell-based; settings: for Treated (cell number × 10^5): about 4×10^4 cells seeded, untreated 2.4 ± 0.2
Experimental: as §1

[6] = system: NBT-II human bladder cancer cells; assay: as above; type: cell-based; settings: for Treated (cell number × 10^5): about 4×10^4 cells seeded, untreated 2.9 ± 0.4
Experimental: as §1

[7] = system: MDA-MB-468 human breast cancer cells; assay: as above; type: cell-based; settings: for Treated (cell number × 10^5): about 4×10^4 cells seeded, untreated 6.1 ± 0.4
Experimental: as §1

[8] = system: HT29 human colon cancer cells; assay: as above; type: cell-based; settings: for Treated (cell number × 10^5): about 4×10^4 cells seeded, untreated 3.8 ± 0.4
Experimental: as §1

[9] = system: Jurkat cells (a human acute T-cell leukemia cell line); assay: as above; type: cell-based; settings: for Treated (cell number × 10^5): about 4×10^4 cells seeded, untreated 8.8 ± 0.4
Experimental: as §1

[10] = system: PC3 human prostate cancer cells; assay: as above; type: cell-based; settings: 10 micromoles; for Treated (cell number × 10^5): about 4×10^4 cells seeded, untreated 7.1 ± 0.3
Experimental: as §1

[11] = system: Hela human cervical cancer cells; assay: as above; type: cell-based; settings: for Treated (cell number × 10^5): about 4×10^4 cells seeded, untreated 3.4 ± 0.4
Experimental: as §1

[12] = system: 3Y1 rat fibroblast cells overexpressing EGF receptors (3Y1-EGFR cells); assay: EGF-induced cell transformation (transformed morphology); type: cell-based; settings: 1 micromole; for cell apoptosis during co-treatment: co-treatment with 100 ng/ml EGF; for effect on EGF-induced transformed morphology: co-treatment with 100 ng/ml EGF for 48 hours
[13] = system: 3Y1 rat fibroblast cells overexpressing the epidermal growth factor receptor (EGFR); assay: Soft agar/cell transformation assay; type: cell-based; settings: 1 micromole with EGF (100 ng/ml), in contrast to EGF alone
From the text: 1×10^3 3Y1 rat fibroblast cells overexpressing the epidermal growth factor receptor (EGFR) were suspended in top agar (consisting of 20 percent calf serum, 0.38 percent agar and the remainder DMEM) and overlaid onto bottom agar (DMEM, 20 percent calf serum and 0.7 percent agar) as reported by Sementchenko et al., in Onocgen 17:2883-2888.

human cancer cells = assay: Cell viability assay, summary over the panel of cancer cells; type: cell-based; settings: 10 micromoles; day 6; cell lines not named as going to apoptosis
Experimental: The following cancer cells were maintained in Dulbecco's modified Eagle medium (DMEM) supplemented with 10 percent bovine calf serum. Cells were seeded for 24 hours. Then they were treated with PKC inhibitors or left untreated. The cells were then collected periodically and evaluated using trypan blue dye exclusion to assess viability using the method described by C Y Chen, et al., in J. Biol. Chem. 273:16700-16709. Cultures containing about 4×10^4 cells were treated with or without 10 micromoles of Gö6850 and the viable cells were counted at day 6. […] Cultures containing about 4×10^4 cells were treated with or without 10 micromoles of NGIC-I and the viable cells were counted at day 6. […] Cultures containing about 4×10^4 cells were treated with or without 10 micromoles of Ro31-7549 and the viable cells were counted at day 6. […] Cultures containing about 4×10^4 cells were treated with or without 10 micromoles of Ro31-8220 and the viable cells were counted at day 6. […] Cultures containing about 4×10^4 cells were treated with or without 10 micromoles of Ro31-8425 and the viable cells were counted at day 6. […] Cultures containing about 4×10^4 cells were treated with or without 10 micromoles of Ro31-0432 and the viable cells were counted at day 6.

[14] = 10 micromoles, growth vs untreated

COc1ccc2c(c1)c1c3c(c4c5ccccc5n(C)c4c1n2CC(O)CN(C)C)C(=O)NC3=O.Cl (centres unmarked) [Gö7874, 5,7(6H)-dione,13-[3-(dimethylamino)-2-hydroxypropyl]-12,13-dihydro-3-methoxy-12-methyl-5H-Indolo[2,3-a]pyrrolo[3,4-c]carbazole, monohydrochloride]
cells that went to apoptosis after treatment (KB oral cancer cells; 5 micromoles): all | Treated (cell number × 10^5) (KB oral cancer cells; 5 micromoles): 0 × 10^5 | cells that went to apoptosis after treatment (U-937 lymphoma cells): all | cells that went to apoptosis after treatment ([1]; 5 micromoles): all | Treated (cell number × 10^5) ([1]; 5 micromoles): 0 × 10^5 | cells that went to apoptosis after treatment ([2]; 5 micromoles): all | inhibition of cell proliferation ([2]; 5 micromoles): More than 60% | Treated (cell number × 10^5) ([2]; 5 micromoles): 0.8 × 10^5 | cells that went to apoptosis after treatment (U251 human glioma cells; 5 micromoles): all | Treated (cell number × 10^5) (U251 human glioma cells; 5 micromoles): 0 × 10^5 | cells that went to apoptosis after treatment ([3]; 5 micromoles): all | Treated (cell number × 10^5) ([3]; 5 micromoles): 0 × 10^5 | cells that went to apoptosis after treatment ([4]; 5 micromoles): all | Treated (cell number × 10^5) ([4]; 5 micromoles): 0 × 10^5 | cells that went to apoptosis after treatment ([5]; 5 micromoles): all | Treated (cell number × 10^5) ([5]; 5 micromoles): 0 × 10^5 | Treated (cell number × 10^5) ([6]; 5 micromoles): 0 × 10^5 | cells that went to apoptosis after treatment ([7]; 5 micromoles): all | Treated (cell number × 10^5) ([7]; 5 micromoles): 0 × 10^5 | cells that went to apoptosis after treatment ([8]; 5 micromoles): all | Treated (cell number × 10^5) ([8]; 5 micromoles): 0 × 10^5 | originally seeded cells survived (fraction, words) ([9]; 5 micromoles): less than one third | Treated (cell number × 10^5) ([9]; 5 micromoles): 0.1 × 10^5 | cells that went to apoptosis after treatment [10]: all | Treated (cell number × 10^5) [10]: 0 × 10^5 | cells that went to apoptosis after treatment ([11]; 5 micromoles): all | Treated (cell number × 10^5) ([11]; 5 micromoles): 0 × 10^5 | cell apoptosis during co-treatment [12]: without detected cell apoptosis | effect on EGF-induced transformed morphology [12]: partially blocked | reduction of colony number in soft agar [13]: 82%

Cl.Cn1cc(C2=C(c3c4n(c5ccccc35)CCC(CN)C4)C(=O)NC2=O)c2ccccc21 (centres unmarked) [Ro31-8425]
cells that went to apoptosis upon treatment (KB oral cancer cells; 10 micromoles): all | Treated (cell number × 10^5) (KB oral cancer cells; 10 micromoles): 0 × 10^5 | % inhibiton (KB oral cancer cells; [14]): * (indicates the inhibitor causes significant cell death, and cell number is less than originally seeded cell number.) | Treated (cell number × 10^5) ([1]; 10 micromoles): 2.6 × 10^5 | % inhibiton [1, 14]: 52% | cells that went to apoptosis upon treatment ([2]; 10 micromoles): all | Treated (cell number × 10^5) ([2]; 10 micromoles): 0 × 10^5 | % inhibiton [2, 14]: * (indicates the inhibitor causes significant cell death, and cell number is less than originally seeded cell number.) | Treated (cell number × 10^5) (U251 human glioma cells; 10 micromoles): 1.4 × 10^5 | % inhibiton (U251 human glioma cells; [14]): 85% | Treated (cell number × 10^5) ([3]; 10 micromoles): 0.4 × 10^5 | % inhibiton [3, 14]: 90% | cells that went to apoptosis upon treatment ([4]; 10 micromoles): all | Treated (cell number × 10^5) ([4]; 10 micromoles): 0 × 10^5 | % inhibiton [4, 14]: * (indicates the inhibitor causes significant cell death, and cell number is less than originally seeded cell number.) | cells that went to apoptosis upon treatment ([5]; 10 micromoles): all | Treated (cell number × 10^5) ([5]; 10 micromoles): 0 × 10^5 | % inhibiton [5, 14]: * (indicates the inhibitor causes significant cell death, and cell number is less than originally seeded cell number.) | cells that went to apoptosis upon treatment ([6]; 10 micromoles): significant number | Treated (cell number × 10^5) ([6]; 10 micromoles): 0.3 × 10^5 | % inhibiton [6, 14]: * (indicates the inhibitor causes significant cell death, and cell number is less than originally seeded cell number.) | cells that went to apoptosis upon treatment ([7]; 10 micromoles): significant number | Treated (cell number × 10^5) ([7]; 10 micromoles): 0.1 ± 0.05 × 10^5 | % inhibiton [7, 14]: * (indicates the inhibitor causes significant cell death, and cell number is less than originally seeded cell number.) | Treated (cell number × 10^5) ([8]; 10 micromoles): 0.6 × 10^5 | % inhibiton [8, 14]: 85% | cells that went to apoptosis upon treatment ([9]; 10 micromoles): significant number | Treated (cell number × 10^5) ([9]; 10 micromoles): 0.3 × 10^5 | % inhibiton [9, 14]: * (indicates the inhibitor causes significant cell death, and cell number is less than originally seeded cell number.) | Treated (cell number × 10^5) [10]: 3 × 10^5 | % inhibiton ([10]; growth vs untreated): 53% | cells that went to apoptosis upon treatment ([11]; 10 micromoles): all | Treated (cell number × 10^5) ([11]; 10 micromoles): 0 × 10^5 | % inhibiton [11, 14]: * (indicates the inhibitor causes significant cell death, and cell number is less than originally seeded cell number.) | inhibition of growth in contrast to untreated cells, range over the other treated cancer cells (human cancer cells): 52-90% | cell apoptosis during co-treatment [12]: without detected cell apoptosis | effect on EGF-induced transformed morphology [12]: partially blocked | reduction of colony number in soft agar [13]: 72%
